Records with an inconclusive call do not appear. Active and inactive are the calls of the source. The rule behind the calls is not given here.
Molecular target: S. cerevisiae eIF2B mutant, luciferase reporter luminescence
Assay: potency on yeast eIF2B luminescence signal – S. cerevisiae, mutant, wild-type, growth, dose response (AID 792)
[1] = measured here: mutant yeast growth
[2] = S. cerevisiae wild-type, luminescence

SMILES	IC50	IC50 [1]	IC50 [2]
COC(=O)c1ccc(NS(=O)(=O)N(C)C)cc1	> 100 µM (inactive)	> 100 µM	
CCOC(=O)COc1ccc(S(=O)(=O)NCc2ccco2)cc1	> 100 µM (inactive)	> 100 µM	
Cc1cc2n(n1)SC(Nc1ccccc1)N2 (stereo unspecified)	> 100 µM (inactive)	> 100 µM	
Cn1c(=O)cc(SCC(=O)NCCCN2CCOCC2)c2ccccc21	> 100 µM (inactive)	> 100 µM	
CCn1c(C)c(/C=N/Nc2nc3ccccc3s2)c2ccccc21	> 100 µM (inactive)	> 100 µM	
O=C(Nc1cccnc1)c1cc(-c2ccco2)on1	> 100 µM (inactive)	> 100 µM	
CCOP(=O)(C#CC(C)(C)C)C1(O)CCCCC1 (stereo unspecified)	> 100 µM (inactive)	> 100 µM	
CCC(C)N(C(=O)COC(=O)c1[nH]c(C)c(C(C)=O)c1C)C1CCS(=O)(=O)C1 (stereo unspecified)	> 100 µM (inactive)	> 100 µM	
COc1cccc(C(=O)Nc2cccc(C(=O)N3CCOCC3)c2)c1	> 100 µM (inactive)	> 100 µM	
Cc1cc(NC(=O)CN2CCCC(C)C2)n(-c2nc3ccccc3s2)n1 (stereo unspecified)	> 100 µM (inactive)	> 100 µM	
CCn1c(Cc2ccccc2)nnc1SCC(=O)Nc1nnc(-c2ccccc2)s1	> 100 µM (inactive)	> 100 µM	
CCCOc1ccc(N2C(=O)CC(SC(=NCC)Nc3cccc(F)c3)C2=O)cc1 (stereo unspecified)	> 100 µM (inactive)	> 100 µM	
O=C(Nc1nnc(COc2ccc(Cl)cc2)s1)c1cccs1	> 100 µM (inactive)	> 100 µM	
CN(C)P(=O)(C(Cl)=C(N1CCCCC1)N1CCCCC1)N(C)C	> 100 µM (inactive)	> 100 µM	
CSc1ccccc1NC(=O)c1noc2c1CCC2	> 100 µM (inactive)	> 100 µM	
Cc1ncc(CC(=O)n2cc(C(=O)c3cc(F)ccc3O)cn2)s1	> 100 µM (inactive)	> 100 µM	
COc1ccccc1Nc1nc(C)cc(C)c1C(N)=O	> 100 µM (inactive)	> 100 µM	
CCc1ccc2oc(-c3cccc(NC(=O)c4cccnc4)c3)nc2c1	> 100 µM (inactive)	> 100 µM	
O=C(c1ccc2c(c1)OCO2)N(c1ccc(F)cc1)C1C=CS(=O)(=O)C1 (stereo unspecified)	> 100 µM (inactive)	> 100 µM	
CCC(=O)N1CCc2cc(S(=O)(=O)NC(C(=O)NCc3ccccc3)C(C)C)ccc21 (stereo unspecified)	> 100 µM (inactive)	> 100 µM	
Cc1ccc2c(c1)N(CC(=O)NC1CCC(C)CC1)C(=O)CO2 (stereo unspecified)	> 100 µM (inactive)	> 100 µM	
O=C1CNC(=O)N1Cc1ccc(Br)cc1	> 100 µM (inactive)	> 100 µM	
CC(C)NC(=O)CCNS(=O)(=O)c1ccc(Br)cc1	> 100 µM (inactive)	24.2 µM	> 100 µM
CN(Cc1c(F)cccc1Cl)c1ccc(S(=O)(=O)N2CCOCC2)cn1	> 100 µM (inactive)	> 100 µM	
CCCCN(C(=O)Cn1nnc2ccccc21)C(C(=O)NCCOC)c1ccccc1 (stereo unspecified)	> 100 µM (inactive)	> 100 µM	
C=CCn1c(SCC(=O)Nc2cc(C)cc(C)c2)nnc1-c1cnccn1	> 100 µM (inactive)	> 100 µM	
Cc1ccc(SCc2cc(=O)[nH]c(N3CCN(Cc4ccc5c(c4)OCO5)CC3)n2)cc1	> 100 µM (inactive)	> 100 µM	

SMILES	IC50	IC50 [1]	IC50 [2]
CCCCCn1c(SCC(=O)OCC)nc2cc(C(=O)NCc3ccco3)ccc2c1=O	> 100 µM (inactive)	> 100 µM	
Cn1c(SC2C(=O)CC(C)(C)CC2=O)nnc1-c1ccco1	> 100 µM (inactive)	> 100 µM	
COc1ccc(-c2nnn(CC(=O)N(Cc3ccc(F)cc3)C(C(=O)NC3CCCC3)c3ccc(F)cc3)n2)cc1 (stereo unspecified)	> 100 µM (inactive)	> 100 µM	
COc1ccc(CCNC(=O)c2ccc(N3CCCC3=O)cc2)cc1OC	> 100 µM (inactive)	> 100 µM	> 100 µM
COc1ccc(-c2cc3nc(C)cc(N)n3n2)cc1	inactive	> 100 µM	3.87 µM
O=C(NCc1ccco1)c1sc(=S)n2c1[nH]c(=O)c1ccccc12	> 100 µM (inactive)	> 100 µM	
Cc1[nH]c(=O)c(C#N)c2c1CSC(C)(C)C2	> 100 µM (inactive)	> 100 µM	
COC(=O)c1cn(CCOc2ccccc2)c2ccccc12	> 100 µM (inactive)	> 100 µM	
Nc1cc2c(cc1C(=O)c1ccccc1)OCCO2	> 100 µM (inactive)	> 100 µM	
O=C(Nc1cccc(-c2cn3cccnc3n2)c1)c1ccc2c(c1)OCO2	> 100 µM (inactive)	> 100 µM	
CC1(C)Cc2c(sc3c2c(=N)n(Cc2ccco2)c(=O)n3Cc2ccc(F)cc2)CO1	> 100 µM (inactive)	> 100 µM	
COc1ccc(OC)c(N/C(C)=C/C(=O)c2ccc(C)o2)c1	> 100 µM (inactive)	> 100 µM	> 100 µM
CCCc1nc(SCC(=O)Nc2cc(C)on2)c2ccccc2n1	> 100 µM (inactive)	> 100 µM	
Oc1cc(Cc2ccccc2)cnc1CN1CCCCC1	> 100 µM (inactive)	> 100 µM	
COc1ccc(C(=O)CSc2nnc(COc3ccccc3)n2Cc2ccco2)cc1	> 100 µM (inactive)	> 100 µM	
C=CCN(Cc1cccc(OC)c1OC)S(=O)(=O)N(C)C	> 100 µM (inactive)	> 100 µM	
CN1CCN(CCC(=O)Nc2ccc3c(c2)OCO3)CC1	> 100 µM (inactive)	> 100 µM	
CCOC(=O)N1CCN(C(=O)COc2cc(=O)n(CC)c3ccccc23)CC1	> 100 µM (inactive)	> 100 µM	
CC1(C)Cc2c(c(=S)nc(-c3ccccc3)n2CCOCCO)CO1	> 100 µM (inactive)	> 100 µM	
Cc1cc(C)cc(NS(=O)(=O)c2ccc3[nH]c(=O)[nH]c3c2)c1	> 100 µM (inactive)	> 100 µM	
Cc1cc2c(c(=O)n1CC1CCCO1)C(c1ccco1)C(C#N)=C(N)O2 (stereo unspecified)	> 100 µM (inactive)	> 100 µM	
O=C(Cn1nnc(-c2ccc(Cl)cc2)n1)NC1CC2CCC1C2 (stereo unspecified)	> 100 µM (inactive)	> 100 µM	
COc1cccc(C2NC(CC(C)C)(C(=O)O)C3C(=O)N(Cc4ccccc4)C(=O)C23)c1O (stereo unspecified)	> 100 µM (inactive)	> 100 µM	
CC(NC(=O)CSc1nc2ccccc2c(=O)n1CCCO)c1ccccc1 (stereo unspecified)	> 100 µM (inactive)	> 100 µM	
Cc1ccc(C)c(N=C2CCCN2Cc2ccccc2)c1C#N	> 100 µM (inactive)	> 100 µM	
COc1ccc(C(=O)COC(=O)CN2C(=O)NC(C)(C)C2=O)cc1OC	> 100 µM (inactive)	> 100 µM	
CC(=O)c1cccc(-n2nnnc2SCC(=O)Nc2cccc(NC(=O)c3ccco3)c2)c1	> 100 µM (inactive)	> 100 µM	

SMILES	IC50	IC50 [1]	IC50 [2]
CC(C)(C)SCCNC(=O)c1ccc(Cl)c(S(=O)(=O)N2CCOCC2)c1	> 100 µM (inactive)	> 100 µM	
CCOC(=O)c1oc2cc(O)ccc2c(=O)c1-c1csc(C)n1	> 100 µM (inactive)	> 100 µM	
CN1C(=O)N(C)C2(c3ccccc3)NC(=O)NC12c1ccccc1 (stereo unspecified)	> 100 µM (inactive)	> 100 µM	
Cc1ccccc1C(=O)Nc1ccccn1	> 100 µM (inactive)	> 100 µM	
O=C(NCCC1=CCCCC1)c1ccc(=O)oc1	> 100 µM (inactive)	> 100 µM	
CCOC(=O)C1=C(C)NC(C)=C(C(=O)OCC)C1C(=O)OCC(=O)N1CCc2ccccc2C1	> 100 µM (inactive)	> 100 µM	
COc1ccccc1-c1nnc2sc(COc3ccc(Cl)cc3)nn12	> 100 µM (inactive)	> 100 µM	
O=C(c1ccccc1)N1CCN(C(=O)c2ccncc2)CC1	> 100 µM (inactive)	> 100 µM	
Oc1ccc2ccc3cccc[n+]3c2c1	> 100 µM (inactive)	> 100 µM	> 100 µM
CCCCOc1ccc(OCCCC)c2c1NC1(N2)C(=O)N(C(C)=O)c2ccccc21	> 100 µM (inactive)	> 100 µM	
CCS(=O)(=O)N1CCCC(C(=O)NCCN(C)Cc2ccccc2)C1 (stereo unspecified)	> 100 µM (inactive)	> 100 µM	
COCc1cc(=O)[nH]c(Nc2nc3ccc(C)cc3o2)n1	> 100 µM (inactive)	> 100 µM	
COc1ccc(C2=CC(c3sccc3C)n3nnnc3N2)cc1 (stereo unspecified)	> 100 µM (inactive)	> 100 µM	
Cc1cc2nnc(SCC(=O)NCc3cccs3)n2c2ccccc12	> 100 µM (inactive)	> 100 µM	
Cc1cc(C)n(-c2cc(C(C)(C)C)nc3c(-c4ccc(Cl)cc4)cnn23)n1	> 100 µM (inactive)	> 100 µM	
COc1ccc(OC)c(C2=Nn3c(nnc3-c3cccc(OC(C)C)c3)SC2)c1	> 100 µM (inactive)	> 100 µM	
COCCn1c(-c2ccccc2)cc(C(=O)O)c1C	> 100 µM (inactive)	> 100 µM	
COc1ccc(Nc2oc(COc3cccc(C)c3)nc2C#N)cc1	> 100 µM (inactive)	> 100 µM	
Nc1nc(NCc2ccccc2)nc(-c2ccccc2)n1	> 100 µM (inactive)	> 100 µM	
COc1cc(C)nc(N2CCCC(C(=O)Nc3cccc(Cl)c3C)C2)n1 (stereo unspecified)	> 100 µM (inactive)	> 100 µM	
COc1ccc(NC(=O)c2ccco2)cc1NC(=O)c1ccc(C)cc1	> 100 µM (inactive)	> 100 µM	
COc1ccccc1NC(=O)CSc1nc(O)cc(=O)n1C	> 100 µM (inactive)	> 100 µM	
COc1ccc(C2C=C(c3ccccc3)Nc3nnnn32)cc1 (stereo unspecified)	> 100 µM (inactive)	> 100 µM	
Nc1nnnn1/N=C/c1ccc(O)cc1	inactive	> 100 µM	2.78 µM
COc1ccc2c(c1)CCc1c(C(=O)N3CC4(C)CC3CC(C)(C)C4)noc1-2 (stereo unspecified)	> 100 µM (inactive)	> 100 µM	
CCN(C(C)=O)c1nc(CSc2nnc(NC(C)C)s2)cs1	> 100 µM (inactive)	> 100 µM	

From PubChem BioAssay AID792 (PCMD, 2007)
